Results: patent publication US9447075B2, “Pyridazine derivatives as EAAT2 activators” (The Brigham and Women's Hospital, Inc., priority 2011, dated 2016)

Key:
[1] = tested on: All other targets (seventy-one targets tested); test: In vitro side effect profiling: all other of seventy-one targets; settings: 10 μM, duplicate
Protocol: (§1) To assess Compound 212320's biological activity and selectivity, we performed an in vitro side effect profiling study. Seventy-one targets were tested at 10 μM in duplicate. These targets include neurotransmitter related receptors (30), steroids (2), ion channels (6), second messenger (1), prostaglandins (3), growth factors/hormones (4), brain/gut peptides (13), enzymes (5) and cytochrome p450 (7). […] Additionally, we performed a protein kinase profiling study. Compound 212320 was tested at 1 and 10 μM against 288 kinases. […] These studies indicate that Compound 212320 has high specificity and low side-effects/toxicity potential.

SOD1(G93A) mice = test: ALS model (SOD1(G93A) mouse model); assay type: in vivo
Excerpt: Guidelines established by the ENMC Group were followed (see Ludolph, A. C., et al. Guidelines for the preclinical in vivo evaluation of pharmacological active drugs for ALS/MND: report on the 142nd ENMC international workshop. Amyotroph Lateral Scler 8, 217-223 (2007))^1, which included the use of gender matched mice (i.e. equal number of males and females in each experimental group), use of littermate matched mice (i.e. the littermate of a therapeutic mouse is used in the control group) and use of mice with the same copy number of the SOD1 transgene. SOD1(G93A) mice received Compound 212320 (shown below, shown also as compound 7-4 in FIG. 1) at 40 mg/kg in 500 μl of 1% DMSO/1% polyethylene glycol 400/0.2% Tween 80/10% hydroxypropyl-β-cyclodextrin/saline starting at 84 days of age (6 times/week, at the same time each day) until death or harvested at 120-days of age for analysis. Western blotting, cresyl violet staining and immunofluorescence staining were performed as previously described in Chang, Y., et al. Messenger RNA oxidation occurs early in disease pathogenesis and promotes motor neuron degeneration in ALS. PLoS One 3, e2849 (2008).
Motor function was determined by measuring peak force using a digital grip dynamometer outfitted with a hind limb pull bar assembly (Columbus Instruments). Measurements started from 70 days of age (three times a week, on the same day of each week and at the same time of each scheduled day) until the mouse loses all strength. Six repetitions were conducted and the average was determined for each point. The examiners were unaware of the treatment of the mice. Food and water were placed on the cage floor when mice began to show motor deficits. […] This time point was recorded as the time of death for survival in days.
Referring to FIG. 2, Compound 212320 delayed motor function decline and extended life span in SOD1(G93A) mice. […] Data were analyzed using the dynamic fitting nonlinear regression analysis. […] Data were analyzed using Kaplan-Meier survival analysis. […] Spinal cords from 120-day-old mice were analyzed.

EAAT2 = EAAT2 protein levels in PA-EAAT2 cells by Western blot; assay type: cell-based, human
Protocol: All of the derivates of 1 were initially evaluated in PA-EAAT2 cells^3 (a primary astrocyte line stably expressing EAAT2 mRNAs) following compound (10 μM) incubation for 4 and 24 h before harvesting and measuring EAAT2 levels by Western blot analysis. The fold increases in EAAT2 protein levels relative to DMSO controls are reported (Tables 1-4).
Characterization and efficacy studies of a compound, Compound 212320 (FIG. 6A) is shown. […] In the absence of serum, PA-EAAT2 cells express low amounts of EAAT2 protein, although the recombinant EAAT2 mRNA are expressed (translational silencing); however, EAAT2 protein levels are increased when an activator is added to the culture (translational activation). This cell line was used for high-throughput screening to identify EAAT2 translational activators. To prioritize candidate compounds, we initially evaluated activation of EAAT2 protein in PA-EAAT2 cells. Promising compounds were further evaluated in primary dissociated neuron and astrocyte mixed cultures and then in mice. FIG. 6 presents the characterization of Compound 212320 in PA-EAAT2 cells. Compound 212320 increased EAAT2 protein levels in a dose—(FIG. 6B) and time—(FIG. 6C) dependent manner. Importantly, the induction occurred in a short amount of time (within 1-2 hr) and was sustained even up to 72 hr (data not show). Additionally, induction occurred at low nanomolar concentrations. […] (FIG. 6D).

male C57BL/6 mice = test: Maximum tolerated dose / tolerability study; assay type: in vivo; settings: single dose 10-75 mg/kg and five-day repeat dose 10-100 mg/kg i.p.
Protocol: (§2) We determined maximum tolerated dose (MTD) of Compound 212320 in male C57BL/6 mice. The study was conducted in two phases: (I) a single dose tolerability study tested at the doses of 10, 25, 50, and 75 mg/kg i.p. (3 mice/dose) and (II) a five-day repeat-dose tolerability study tested at the doses of 10, 25, 50, and 100 mg/kg i.p. (5 mice/dose). […] In the repeat-dose study, body weights were determined prior to each dose and prior to termination on day 6. Clinical pathologies including standard hematology, serum chemistry and coagulation parameters were evaluated on samples collected on day 6. All animals from phase II were necropsied, and selected organs were weighed. […] Due to lack of toxicity, the highest dose tested, 100 mg/kg/day, was determined to be the 5-day no observed adverse effect level (NOAEL) for Compound 212320.

[2] = Maximum tolerated dose / tolerability study; assay type: in vivo; settings: male, C57BL/6, mouse, in vivo, ip; five-day repeat-dose i.p., highest dose tested; read-out: 5-day no observed adverse effect level (NOAEL)
Protocol: as §2

[3] = tested on: All other kinases (288 kinases tested); test: Protein kinase profiling: all other of 288 kinases; assay type: biochemical; settings: 1 and 10 μM
Protocol: as §1

[4] = i.p., 40 mg/kg daily from 84 days of age

Cc1ccccc1CSc1ccc(-c2ccccn2)nn1 [Compound 7-4]
inhibition, all other targets [1]: < 30%
EAAT2 protein levels in spinal cord (western blot) (SOD1(G93A) mice; 120-day-old mice): restores
Life span (survival) (SOD1(G93A) mice; [4]): extended
Motor function decline (grip strength) (SOD1(G93A) mice; [4]): delayed
Concentrations at which EAAT2 induction occurred (EAAT2; PA-EAAT2 cells): low nanomolar
Time in which EAAT2 induction occurred (EAAT2; PA-EAAT2 cells): 1 to 2 h
Time up to which EAAT2 induction was sustained (EAAT2; PA-EAAT2 cells, data not shown): up to 72 hr
EAAT2 protein levels (EAAT2; PA-EAAT2 cells, dose- and time-dependent manner (FIG. 6B, 6C)): increased
Fold increase for EAAT2, 4 h (EAAT2; compound 10 μM, 4 h incubation, PA-EAAT2 cells, relative to DMSO controls, na = not active): 1.7 ± 0.1 fold
Fold increase for EAAT2, 24 h (EAAT2; compound 10 μM, 24 h incubation, PA-EAAT2 cells, relative to DMSO controls, na = not active): 3.5 ± 0.3 fold
SAR comparison of activity on EAAT2 protein levels, in words (EAAT2; relative to parent/comparator analogue, Tables 1-4): increased potency
Clinical signs of toxicity, clinical pathology, body weight (male C57BL/6 mice): no clinical signs of toxicity
NOAEL at 5 day [2]: 100 mg/kg/day
Activity on all other kinases tested [3]: insignificant activity
